Reference: US20020111274A1, “1-alkyl-3-[1-(substituted phenyl) benzotriazol-6-yl] uracils” (BASF Aktiengesellschaft, priority 2000, published 2002)

Key:
Parameters in all cases: scale not given here
ABUTH Velvetleaf [1] = assay: Postemergence herbicidal evaluation, ABUTH; type: in vivo, Abutilon theophrasti, Medic.; settings: postemergence spray, rated about two-three weeks after treatment
How it was run: (§1)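 Two-week-old seedlings sprayed postemergence with compound in 80/20 acetone/water plus 1.0% methylated seed oil, at about 0.006–0.400 kg/ha, through a nozzle at 40 psi. Plants kept under greenhouse conditions and visually rated about two–three weeks after treatment; ratings from repeat tests averaged.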

AMBEL Ragweed, Common [2] = assay: Postemergence herbicidal evaluation, AMBEL; type: in vivo, Ambrosia artemisifolia, L.; settings: postemergence spray, rated about two-three weeks after treatment
How it was run: as §1

CASOB Sicklepod [3] = assay: Postemergence herbicidal evaluation, CASOB; type: in vivo, Cassia obtusifolia, L.; settings: postemergence spray, rated about two-three weeks after treatment
How it was run: as §1

[4] = system: CHEAL Lambsquarters, Common; assay: Postemergence herbicidal evaluation, CHEAL; type: in vivo, Chenopodium album, L.; settings: postemergence spray, rated about two-three weeks after treatment
How it was run: as §1

ECHOG Barnyardgrass [5] = assay: Postemergence herbicidal evaluation, ECHOG; type: in vivo, Echinochloa crus-galli, (L.) Beau; settings: postemergence spray, rated about two-three weeks after treatment
How it was run: as §1

GALAP Galium [6] = assay: Postemergence herbicidal evaluation, GALAP; type: in vivo, Galium aparine; settings: postemergence spray, rated about two-three weeks after treatment
How it was run: as §1

[7] = system: IPOHE Morningglory, Ivyleaf; assay: Postemergence herbicidal evaluation, IPOHE; type: in vivo, Ipomoea hederacea, (L.) Jacq.; settings: postemergence spray, rated about two-three weeks after treatment
How it was run: as §1

SETVI Foxtail, Green [8] = assay: Postemergence herbicidal evaluation, SETVI; type: in vivo, Setaria viridis, (L.) Beau; settings: postemergence spray, rated about two-three weeks after treatment
How it was run: as §1

GLXMAW Soybean, Williams [9] = assay: Postemergence herbicidal evaluation, GLXMAW; type: in vivo, Glycine max, (L.) Merr. cv Williams; settings: postemergence spray, rated about two-three weeks after treatment
How it was run: as §1

[10] = system: TRZAWR Wheat, Winter, cv Riband; assay: Postemergence herbicidal evaluation, TRZAWR; type: in vivo, Triticum aestivum; settings: postemergence spray, rated about two-three weeks after treatment
How it was run: as §1

ORYSAT Rice, Tebonnet [11] = assay: Postemergence herbicidal evaluation, ORYSAT; type: in vivo, Oryza sativa, (L.); settings: postemergence spray, rated about two-three weeks after treatment
How it was run: as §1

ZEAMX Corn, Field [12] = assay: Postemergence herbicidal evaluation, ZEAMX; type: in vivo, Zea mays, L. (Sammel-Bezeichnung); settings: postemergence spray, rated about two-three weeks after treatment
How it was run: as §1

ABUTH Velvetleaf [13] = assay: Preemergence herbicidal evaluation, ABUTH; type: in vivo, Abutilon theophrasti, Medic.; settings: preemergence
How it was run: (§2)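 Seeds mixed with potting soil in cups, then sprayed preemergence with aqueous acetone test solution at about 0.013 to 0.800 kg per hectare equivalent. Cups kept under standard greenhouse care; plants rated on a visual scale four to five weeks after treatment.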

AMBEL Ragweed, Common [14] = assay: Preemergence herbicidal evaluation, AMBEL; type: in vivo, Ambrosia artemisifolia, L.; settings: preemergence
How it was run: as §2

CASOB Sicklepod [15] = assay: Preemergence herbicidal evaluation, CASOB; type: in vivo, Cassia obtusifolia, L.; settings: preemergence
How it was run: as §2

[16] = system: CHEAL Lambsquarters, Common; assay: Preemergence herbicidal evaluation, CHEAL; type: in vivo, Chenopodium album, L.; settings: preemergence
How it was run: as §2

ECHOG Barnyardgrass [17] = assay: Preemergence herbicidal evaluation, ECHOG; type: in vivo, Echinochloa crus-galli, (L.) Beau; settings: preemergence
How it was run: as §2

GALAP Galium [18] = assay: Preemergence herbicidal evaluation, GALAP; type: in vivo, Galium aparine; settings: preemergence
How it was run: as §2

[19] = system: IPOHE Morningglory, Ivyleaf; assay: Preemergence herbicidal evaluation, IPOHE; type: in vivo, Ipomoea hederacea, (L.) Jacq.; settings: preemergence
How it was run: as §2

SETVI Foxtail, Green [20] = assay: Preemergence herbicidal evaluation, SETVI; type: in vivo, Setaria viridis, (L.) Beau; settings: preemergence
How it was run: as §2

GLXMAW Soybean, Williams [21] = assay: Preemergence herbicidal evaluation, GLXMAW; type: in vivo, Glycine max, (L.) Merr. cv Williams; settings: preemergence
How it was run: as §2

[22] = system: TRZAWR Wheat, Winter, cv Riband; assay: Preemergence herbicidal evaluation, TRZAWR; type: in vivo, Triticum aestivum; settings: preemergence
How it was run: as §2

ORYSAT Rice, Tebonnet [23] = assay: Preemergence herbicidal evaluation, ORYSAT; type: in vivo, Oryza sativa, (L.); settings: preemergence
How it was run: as §2

ZEAMX Corn, Field [24] = assay: Preemergence herbicidal evaluation, ZEAMX; type: in vivo, Zea mays, L. (Sammel-Bezeichnung); settings: preemergence
How it was run: as §2

Compound: C=CCOc1ccc(-n2nnc3cc(F)c(-n4c(=O)cc(C(F)(F)F)n(C)c4=O)cc32)c(C)c1 [Example 43]
- Postemergence herbicidal rating ABUTH (ABUTH Velvetleaf [1]; 0.008 kg/ha): 9.0
- Postemergence herbicidal rating ABUTH (ABUTH Velvetleaf [1]; 0.016 kg/ha): 9.0
- Postemergence herbicidal rating ABUTH (ABUTH Velvetleaf [1]; 0.032 kg/ha): 9.0
- Postemergence herbicidal rating ABUTH (ABUTH Velvetleaf [1]; 0.062 kg/ha): 9.0
- Postemergence herbicidal rating AMBEL (AMBEL Ragweed, Common [2]; 0.008 kg/ha): 1.0
- Postemergence herbicidal rating AMBEL (AMBEL Ragweed, Common [2]; 0.016 kg/ha): 7.0
- Postemergence herbicidal rating AMBEL (AMBEL Ragweed, Common [2]; 0.032 kg/ha): 7.0
- Postemergence herbicidal rating AMBEL (AMBEL Ragweed, Common [2]; 0.062 kg/ha): 9.0
- Postemergence herbicidal rating CASOB (CASOB Sicklepod [3]; 0.008 kg/ha): 0.0
- Postemergence herbicidal rating CASOB (CASOB Sicklepod [3]; 0.016 kg/ha): 0.0
- Postemergence herbicidal rating CASOB (CASOB Sicklepod [3]; 0.032 kg/ha): 0.0
- Postemergence herbicidal rating CASOB (CASOB Sicklepod [3]; 0.062 kg/ha): 3.0
- Postemergence herbicidal rating CHEAL ([4]; 0.008 kg/ha): 0.0
- Postemergence herbicidal rating CHEAL ([4]; 0.016 kg/ha): 3.0
- Postemergence herbicidal rating CHEAL ([4]; 0.032 kg/ha): 3.0
- Postemergence herbicidal rating CHEAL ([4]; 0.062 kg/ha): 4.0
- Postemergence herbicidal rating ECHCG (ECHOG Barnyardgrass [5]; 0.008 kg/ha): 1.0
- Postemergence herbicidal rating ECHCG (ECHOG Barnyardgrass [5]; 0.016 kg/ha): 1.0
- Postemergence herbicidal rating ECHCG (ECHOG Barnyardgrass [5]; 0.032 kg/ha): 1.0
- Postemergence herbicidal rating ECHCG (ECHOG Barnyardgrass [5]; 0.062 kg/ha): 2.0
- Postemergence herbicidal rating GALAP (GALAP Galium [6]; 0.008 kg/ha): 0.0
- Postemergence herbicidal rating GALAP (GALAP Galium [6]; 0.016 kg/ha): 0.0
- Postemergence herbicidal rating GALAP (GALAP Galium [6]; 0.032 kg/ha): 1.0
- Postemergence herbicidal rating GALAP (GALAP Galium [6]; 0.062 kg/ha): 1.0
- Postemergence herbicidal rating IPOHE ([7]; 0.008 kg/ha): 9.0
- Postemergence herbicidal rating IPOHE ([7]; 0.016 kg/ha): 9.0
- Postemergence herbicidal rating IPOHE ([7]; 0.032 kg/ha): 9.0
- Postemergence herbicidal rating IPOHE ([7]; 0.062 kg/ha): 9.0
- Postemergence herbicidal rating SETVI (SETVI Foxtail, Green [8]; 0.008 kg/ha): 0.0
- Postemergence herbicidal rating SETVI (SETVI Foxtail, Green [8]; 0.016 kg/ha): 1.0
- Postemergence herbicidal rating SETVI (SETVI Foxtail, Green [8]; 0.032 kg/ha): 9.0
- Postemergence herbicidal rating SETVI (SETVI Foxtail, Green [8]; 0.062 kg/ha): 9.0
- Postemergence herbicidal rating GLXMAW (GLXMAW Soybean, Williams [9]; 0.008 kg/ha): 5.0
- Postemergence herbicidal rating GLXMAW (GLXMAW Soybean, Williams [9]; 0.016 kg/ha): 5.0
- Postemergence herbicidal rating GLXMAW (GLXMAW Soybean, Williams [9]; 0.032 kg/ha): 5.5
- Postemergence herbicidal rating GLXMAW (GLXMAW Soybean, Williams [9]; 0.062 kg/ha): 5.5
- Postemergence herbicidal rating TRZAWR ([10]; 0.008 kg/ha): 3.0
- Postemergence herbicidal rating TRZAWR ([10]; 0.016 kg/ha): 3.0
- Postemergence herbicidal rating TRZAWR ([10]; 0.032 kg/ha): 3.0
- Postemergence herbicidal rating TRZAWR ([10]; 0.062 kg/ha): 3.0
- Postemergence herbicidal rating ORYSAT (ORYSAT Rice, Tebonnet [11]; 0.008 kg/ha): 2.5
- Postemergence herbicidal rating ORYSAT (ORYSAT Rice, Tebonnet [11]; 0.016 kg/ha): 2.0
- Postemergence herbicidal rating ORYSAT (ORYSAT Rice, Tebonnet [11]; 0.032 kg/ha): 2.0
- Postemergence herbicidal rating ORYSAT (ORYSAT Rice, Tebonnet [11]; 0.062 kg/ha): 3.0
- Postemergence herbicidal rating ZEAMX (ZEAMX Corn, Field [12]; 0.008 kg/ha): 4.0
- Postemergence herbicidal rating ZEAMX (ZEAMX Corn, Field [12]; 0.016 kg/ha): 5.0
- Postemergence herbicidal rating ZEAMX (ZEAMX Corn, Field [12]; 0.032 kg/ha): 5.0
- Postemergence herbicidal rating ZEAMX (ZEAMX Corn, Field [12]; 0.062 kg/ha): 5.0
- ABUTH herbicidal rating (ABUTH Velvetleaf [13]; rate 0.016 kg/ha): 0.0
- ABUTH herbicidal rating (ABUTH Velvetleaf [13]; rate 0.032 kg/ha): 1.0
- ABUTH herbicidal rating (ABUTH Velvetleaf [13]; rate 0.062 kg/ha): 9.0
- ABUTH herbicidal rating (ABUTH Velvetleaf [13]; rate 0.125 kg/ha): 8.0
- AMBEL herbicidal rating (AMBEL Ragweed, Common [14]; rate 0.016 kg/ha): 0.0
- AMBEL herbicidal rating (AMBEL Ragweed, Common [14]; rate 0.032 kg/ha): 0.0
- AMBEL herbicidal rating (AMBEL Ragweed, Common [14]; rate 0.062 kg/ha): 0.0
- AMBEL herbicidal rating (AMBEL Ragweed, Common [14]; rate 0.125 kg/ha): 0.0
- CASOB herbicidal rating (CASOB Sicklepod [15]; rate 0.016 kg/ha): 0.0
- CASOB herbicidal rating (CASOB Sicklepod [15]; rate 0.032 kg/ha): 0.0
- CASOB herbicidal rating (CASOB Sicklepod [15]; rate 0.062 kg/ha): 0.0
- CASOB herbicidal rating (CASOB Sicklepod [15]; rate 0.125 kg/ha): 0.0
- CHEAL herbicidal rating ([16]; rate 0.016 kg/ha): 9.0
- CHEAL herbicidal rating ([16]; rate 0.032 kg/ha): 9.0
- CHEAL herbicidal rating ([16]; rate 0.062 kg/ha): 9.0
- CHEAL herbicidal rating ([16]; rate 0.125 kg/ha): 9.0
- ECHCG herbicidal rating (ECHOG Barnyardgrass [17]; rate 0.016 kg/ha): 0.0
- ECHCG herbicidal rating (ECHOG Barnyardgrass [17]; rate 0.032 kg/ha): 0.0
- ECHCG herbicidal rating (ECHOG Barnyardgrass [17]; rate 0.062 kg/ha): 0.0
- ECHCG herbicidal rating (ECHOG Barnyardgrass [17]; rate 0.125 kg/ha): 1.0
- GALAP herbicidal rating (GALAP Galium [18]; rate 0.016 kg/ha): 0.0
- GALAP herbicidal rating (GALAP Galium [18]; rate 0.032 kg/ha): 0.0
- GALAP herbicidal rating (GALAP Galium [18]; rate 0.062 kg/ha): 0.0
- GALAP herbicidal rating (GALAP Galium [18]; rate 0.125 kg/ha): 0.0
- IPOHE herbicidal rating ([19]; rate 0.016 kg/ha): 0.0
- IPOHE herbicidal rating ([19]; rate 0.032 kg/ha): 0.0
- IPOHE herbicidal rating ([19]; rate 0.062 kg/ha): 0.0
- IPOHE herbicidal rating ([19]; rate 0.125 kg/ha): 0.0
- SETVI herbicidal rating (SETVI Foxtail, Green [20]; rate 0.016 kg/ha): 0.0
- SETVI herbicidal rating (SETVI Foxtail, Green [20]; rate 0.032 kg/ha): 1.0
- SETVI herbicidal rating (SETVI Foxtail, Green [20]; rate 0.062 kg/ha): 4.0
- SETVI herbicidal rating (SETVI Foxtail, Green [20]; rate 0.125 kg/ha): 7.0
- GLXMAW herbicidal rating (GLXMAW Soybean, Williams [21]; rate 0.016 kg/ha): 1.0
- GLXMAW herbicidal rating (GLXMAW Soybean, Williams [21]; rate 0.032 kg/ha): 1.0
- GLXMAW herbicidal rating (GLXMAW Soybean, Williams [21]; rate 0.062 kg/ha): 0.0
- GLXMAW herbicidal rating (GLXMAW Soybean, Williams [21]; rate 0.125 kg/ha): 1.0
- TRZAWR herbicidal rating ([22]; rate 0.016 kg/ha): 0.0
- TRZAWR herbicidal rating ([22]; rate 0.032 kg/ha): 0.0
- TRZAWR herbicidal rating ([22]; rate 0.062 kg/ha): 0.0
- TRZAWR herbicidal rating ([22]; rate 0.125 kg/ha): 1.0
- ORYSAT herbicidal rating (ORYSAT Rice, Tebonnet [23]; rate 0.016 kg/ha): 0.0
- ORYSAT herbicidal rating (ORYSAT Rice, Tebonnet [23]; rate 0.032 kg/ha): 0.0
- ORYSAT herbicidal rating (ORYSAT Rice, Tebonnet [23]; rate 0.062 kg/ha): 0.0
- ORYSAT herbicidal rating (ORYSAT Rice, Tebonnet [23]; rate 0.125 kg/ha): 0.0
- ZEAMX herbicidal rating (ZEAMX Corn, Field [24]; rate 0.016 kg/ha): 0.0
- ZEAMX herbicidal rating (ZEAMX Corn, Field [24]; rate 0.032 kg/ha): 0.0
- ZEAMX herbicidal rating (ZEAMX Corn, Field [24]; rate 0.062 kg/ha): 0.0
- ZEAMX herbicidal rating (ZEAMX Corn, Field [24]; rate 0.125 kg/ha): 2.0
